Source: patent US20110020460A1, “GPR 119 MODULATORS” (Pfizer Inc., priority 2009, published 2011)
Where “and” joins values, the source holds several entries; their conditions need not be identical. Equal entries are not always repeated.

Legend:
[1] = target: T1, human GPR119 (Homo sapiens, UniProt Q8TDV5); assay: cAMP HTRF functional assay (hGPR119 HEK-CRE beta-lactamase cells); format: cell-based; details: one value per run; for EC50: hGPR119 HEK-CRE beta-lactamase cells, HTRF cAMP; for Intrinsic Activity* (cAMP) / Emax: percent of maximal activity relative to standard GPR119 agonist (WO2005121121) at 10 μM; for Emax: read-out: Intrinsic Activity* (cAMP)
T1 construct: host or cells: HEK293-CRE-beta-lactamase
T1 sequence (Q8TDV5 1-335): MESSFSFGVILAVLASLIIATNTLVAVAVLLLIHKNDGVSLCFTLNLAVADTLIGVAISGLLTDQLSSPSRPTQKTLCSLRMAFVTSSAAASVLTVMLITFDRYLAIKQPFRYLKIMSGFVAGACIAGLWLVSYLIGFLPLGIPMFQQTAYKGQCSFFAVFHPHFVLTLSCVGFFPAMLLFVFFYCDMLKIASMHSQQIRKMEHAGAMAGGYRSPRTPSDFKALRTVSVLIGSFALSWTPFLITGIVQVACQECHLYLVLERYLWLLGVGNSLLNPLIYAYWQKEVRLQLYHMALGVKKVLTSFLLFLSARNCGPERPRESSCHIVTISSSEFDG
Protocol: GPR119 agonist activity was also determined with a cell-based assay utilizing an HTRF (Homogeneous Time-Resolved Fluorescence) cAMP detection kit (cAMP dynamic 2 Assay Kit; Cis Bio cat #62AM4PEC) that measures cAMP levels in the cell. The method is a competitive immunoassay between native cAMP produced by the cells and the cAMP labeled with the dye d2. The tracer binding is visualized by a Mab anti-cAMP labeled with Cryptate. The specific signal (i.e. energy transfer) is inversely proportional to the concentration of cAMP in either standard or sample.
Following 30 minutes incubation at room temperature, 5 microL of labeled d2 cAMP and 5 microL of anti-cAMP antibody (both diluted 1:20 in cell lysis buffer; as described in the manufacturers assay protocol) were added to each well of the assay plate. […] Raw data were converted to nM cAMP by interpolation from a cAMP standard curve (as described in the manufacturer's assay protocol) and EC50 determinations were made from an agonist-response curves analyzed with a curve fitting program using a 4-parameter logistic dose response equation.

[2] = target: T2, human GPR119 (Homo sapiens, UniProt Q8TDV5); assay: beta-arrestin functional assay (DiscoverX PathHunter U2OS hGPR119 beta-arrestin cells); format: cell-based; details: for EC50: read-out: Human B-arrestin Functional EC50; for Emax: U2OS, read-out: Intrinsic Activity* (B-arrestin)
T2 construct: host or cells: U2OS
Protocol: GPR119 agonist activity was also determined with a cell-based assay utilizing DiscoverX PathHunter β-arrestin cell assay technology and their U2OS hGPR119 β-arrestin cell line (DiscoverX Cat #93-0356C3). In this assay, agonist activation is determined by measuring agonist-induced interaction of […] with activated GPR119. A small, 42 amino acid enzyme fragment, called ProLink was appended to the C-terminus of GPR119. Arrestin was fused to the larger enzyme fragment, termed EA (Enzyme Acceptor). Activation of GPR119 stimulates binding of arrestin and forces the complementation of the two enzyme fragments, resulting in formation of a functional β-galactosidase enzyme capable of hydrolyzing substrate and generating a chemiluminescent signal.
EC50 determinations were made from an agonist-response curves analyzed with a curve fitting program using a 4-parameter logistic dose response equation.
T2 sequence (P32121 whole entry partner, one chain of several): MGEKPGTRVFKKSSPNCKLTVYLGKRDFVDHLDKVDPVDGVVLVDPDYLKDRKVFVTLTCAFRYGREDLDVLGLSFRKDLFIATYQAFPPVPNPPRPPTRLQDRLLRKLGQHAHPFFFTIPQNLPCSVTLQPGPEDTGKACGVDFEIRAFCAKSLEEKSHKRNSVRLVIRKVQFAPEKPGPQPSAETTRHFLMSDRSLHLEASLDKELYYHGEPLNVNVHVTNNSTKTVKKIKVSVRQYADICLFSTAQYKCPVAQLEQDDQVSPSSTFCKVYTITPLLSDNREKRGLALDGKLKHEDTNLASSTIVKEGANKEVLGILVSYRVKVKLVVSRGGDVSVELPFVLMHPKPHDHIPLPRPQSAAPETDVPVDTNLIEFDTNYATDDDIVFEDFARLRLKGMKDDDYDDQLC

[3] = target: T1, human GPR119; assay: GPR119 radioligand binding assay ([3H]-Compound A or [3H]-Compound B, HEK 293FT membranes); details: Ki from IC50 by Cheng-Prusoff; one value per run; read-out: Human Binding Ki
Protocol: Cells were harvested via centrifugation (3,000×g, 10 minutes), washed once on DPBS (minus Ca++/Mg++), resuspended in 0.25M sucrose, 25 mM HEPES, 0.5 mM EDTA, pH 7.4 and frozen at −80 degrees Celsius.
The frozen cells were thawed on ice and centrifuged at 700×g (1400 rpm) for 10 minutes at 4 degrees Celsius. The cell pellet was resuspended in 20 mL phosphate-buffered saline, and centrifuged at 1400 rpm for 10 minutes. […] Cells were then lysed with 15 gentle strokes of a tight-fitting glass Dounce homogenizer. The homogenate was centrifuged at 1000×g (2200 rpm) for 10 minutes at 4 degrees Celsius. The supernatant was transferred into fresh centrifuge tubes on ice. The cell pellet was resuspended in homogenization buffer, and centrifuged again at 1000×g (2200 rpm) for 10 minutes at 4 degrees Celsius after which the supernatant was removed and the pellet resuspended in homogenization buffer. […] The solution was then centrifuged at 25,000×g (15000 rpm) for 20 minutes at 4 degrees Celsius, the supernatant was discarded, and the pellet was resuspended in fresh homogenization buffer (minus Benzonase and MgCl2). After repeating the 25,000×g centrifugation step, the final membrane pellet was resuspended in homogenization buffer and frozen at −80 degrees Celsius.
2 microL of each dilution was added to appropriate wells of a 96-well plate (each concentration in triplicate).
Membranes expressing GPR119 were thawed and diluted to a final concentration of 20 μg/100 microL per well in Binding Buffer, and 100 microL of diluted membranes were added to each well of 96-well plate.
The plate was incubated for 60 minutes w/shaking at room temperature (approximately 25 degrees Celsius). […] Filters were then washed six times using washing buffer (50 mM Tris-HCl, pH 7.5 kept at 4 degrees Celsius). The filter plates were then air-dyed at room temperature overnight.
IC50 determinations were made from competition curves, analyzed with a proprietary curve fitting program (SIGHTS) and a 4-parameter logistic dose response equation. Ki values were calculated from IC50 values, using the Cheng-Prusoff equation.

[4] = target: T1, human GPR119; assay: beta-lactamase reporter functional assay (hGPR119 HEK293-CRE beta-lactamase cells); format: cell-based; details: one value per run; for EC50: hGPR119 HEK293-CRE beta-lactamase cells, read-out: Human B-lactamase Functional EC50; for Intrinsic Activity* (B-lactamase) / Emax: percent of maximal activity relative to standard GPR119 agonist (WO2005121121) at 10 microM; for Emax: read-out: Intrinsic Activity* (B-lactamase)
Protocol: The assay for GPR119 agonists utilizes a cell-based (hGPR119 HEK293-CRE beta-lactamase) reporter construct where agonist activation of human GPR119 is coupled to beta-lactamase production via a cyclic AMP response element (CRE). GPR119 activity is then measured utilizing a FRET-enabled beta-lactamase substrate, CCF4-AM (Live Blazer FRET-B/G Loading kit, Invitrogen cat #K1027). […] After 4 hours the plating medium was removed and replaced with 40 microL of assay medium (Assay medium is plating medium without potassium clavulanate and HIFBS). Varying concentrations of each compound to be tested was then added in a volume of 10 microL (final DMSO≦0.5%) and the cells were incubated for 16 hours at 37 degrees Celsius in a humidified environment containing 5% carbon dioxide. Plates were removed from the incubator and allowed to equilibrate to room temperature for approximately 15 minutes. 10 microL of 6×CCF4/AM working dye solution (prepared according to instructions in the Live Blazer FRET-B/G Loading kit, Invitrogen cat #K1027) was added per well and incubated at room temperature for 2 hours in the dark. Fluorescence was measured on an EnVision fluorimetric plate reader, excitation 405 nm, emission 460 nm/535 nm. EC50 determinations were made from agonist-response curves analyzed with a curve fitting program using a 4-parameter logistic dose-response equation.

[5] = U2OS hGPR119 beta-arrestin cells, one value per run
[6] = percent of maximal activity relative to standard GPR119 agonist (WO2005121121) at 10 microM, one value per run
[7] = **curve was extrapolated to 100% to calculate an EC50

SMILES: CC1(OC(=O)N2CCC(n3ncc(COc4ccc(C(N)=O)cc4F)c3C#N)CC2)CC1 [Example 15, 1-Methylcyclopropyl 4-{4-[(4-carbamoyl-2-fluorophenoxy)methyl]-5-cyano-1H-pyrazol-1-yl}piperidine-1-carboxylate]
- EC50 [1]: 198 nM and 106 nM and 129 nM
- Intrinsic Activity* (cAMP) [1]: 102% and 112% and 131%
- EC50 [2, 5]: 63 nM
- Emax [2, 6]: 104%
- Ki [3]: 268 nM and 160 nM

SMILES: CC1(OC(=O)N2CCC(n3ncc(COc4cc(F)ccc4F)c3C#N)CC2)CC1 [Example 13, 1-Methylcyclopropyl 4-{5-cyano-4-[(2,5-difluorophenoxy)methyl]-1H-pyrazol-1-yl}piperidine-1-carboxylate]
- EC50 [1]: 180 nM and 112 nM
- Intrinsic Activity* (cAMP) [1]: 87%
- Emax [1]: 95%
- EC50 [2, 5]: 217 nM
- Emax [2, 6]: 119%
- Ki [3]: 149 nM

SMILES: CC1(OC(=O)N2CCC(n3ncc(COc4c(F)ccc(F)c4F)c3C#N)CC2)CC1 [Example 31, 1-Methylcyclopropyl 4-{5-cyano-4-[(2,3,6-trifluorophenoxy)methyl]-1H-pyrazol-1-yl}piperidine-1-carboxylate]
- EC50 [1]: 56 nM and 52 nM
- Intrinsic Activity* (cAMP) [1]: 109%
- Emax [1]: 107%
- EC50 [2, 5]: 155 nM
- Emax [2, 6]: 92%
- Ki [3]: 462 nM

SMILES: CC1(OC(=O)N2CCC(n3ncc(COc4ccc(C#N)cc4)c3C#N)CC2)CC1 [Example 17, 1-Methylcyclopropyl 4-(5-cyano-4-((4-cyanophenoxy)methyl)-1H-pyrazol-1-yl)piperidine-1-carboxylate]
- EC50 [1]: 39 nM and 26 nM
- Intrinsic Activity* (cAMP) [1]: 91%
- Emax [1]: 95%
- EC50 [2, 5]: 161 nM
- Emax [2, 6]: 67%

SMILES: CC(C)OC(=O)N1CCC(n2ncc(COc3ccc(C#N)cc3F)c2C#N)CC1 [Example 8, Isopropyl 4-{5-cyano-4-[(4-cyano-2-fluorophenoxy)methyl]-1H-pyrazol-1-yl}piperidine-1-carboxylate]
- EC50 [1]: 9 nM and 6 nM and 7 nM
- Intrinsic Activity* (cAMP) [1]: 75% and 74%
- Emax [1]: 89%
- EC50 [2, 5]: 16 nM
- Emax [2, 6]: 80%
- EC50 [4]: 20 nM and 39 nM and 64 nM
- Intrinsic Activity* (B-lactamase) [4]: 102% and 94%
- Emax [4]: 100%

SMILES: CC1(OC(=O)N2CCC(n3ncc(COc4ccc(C(N)=O)cc4)c3C#N)CC2)CC1 [Example 16, 1-Methylcyclopropyl 4-{4-[(4-carbamoylphenoxy)methyl]-5-cyano-1H-pyrazol-1-yl}piperidine-1-carboxylate]
- EC50 [1]: 204 nM and 165 nM and 316 nM
- Intrinsic Activity* (cAMP) [1]: 102% and 119%
- Emax [1]: 105%
- EC50 [2, 7]: 420 nM
- EC50 [2, 5]: 472 nM
- Emax [2, 7]: 100%

SMILES: CC(C)OC(=O)N1CCC(n2ncc(COc3ccc(-n4cnnn4)cc3F)c2C#N)CC1 [Example 3, Isopropyl 4-(5-cyano-4-{[2-fluoro-4-(1H-tetrazol-1-yl)phenoxy]-methyl}-1H-pyrazol-1-yl)piperidine-1-carboxylate]
- Intrinsic Activity* (cAMP) [1]: 91% and 74% and 79% and 84%
- Emax [1]: 86%
- EC50 [2, 5]: 4 nM
- Emax [2, 6]: 111%
- Ki [3]: 5 nM and 10 nM and 37 nM
- EC50 [4]: 8 nM and 11 nM and 6 nM
- Intrinsic Activity* (B-lactamase) [4]: 105% and 96%
- Emax [4]: 98%

SMILES: CC(C)OC(=O)N1CCC(n2ncc(COc3ccc(-c4nccn4C)cc3F)c2C#N)CC1 [Example 33, Isopropyl 4-(5-cyano-4-{[2-fluoro-4-(1-methyl-1H-imidazol-2-yl)phenoxy]methyl}-1H-pyrazol-1-yl)piperidine-1-carboxylate]
- EC50 [1]: 244 nM and 274 nM
- Intrinsic Activity* (cAMP) [1]: 92%
- Emax [1]: 85%
- EC50 [2, 7]: 1330 nM
- Emax [2, 7]: 100%

SMILES: CC1(OC(=O)N2CCC(n3ncc(COc4cccc(F)c4F)c3C#N)CC2)CC1 [Example 14, 1-Methylcyclopropyl 4-{5-cyano-4-[(2,3-difluorophenoxy)methyl]-1H-pyrazol-1-yl}piperidine-1-carboxylate]
- EC50 [1]: 436 nM and 494 nM
- Intrinsic Activity* (cAMP) [1]: 78%
- Emax [1]: 74%
- EC50 [2, 5]: 495 nM
- Emax [2, 6]: 109%
- Ki [3]: 723 nM

SMILES: CC(C)OC(=O)N1CCC(n2ncc(COc3ccc(-n4cnnn4)cc3)c2C#N)CC1 [Example 4, Isopropyl 4-(5-cyano-4-{[4-(1H-tetrazol-1-yl)phenoxy]methyl}-1H-pyrazol-1-yl)piperidine-1-carboxylate]
- EC50 [1]: 10 nM and 9 nM
- Intrinsic Activity* (cAMP) [1]: 60%
- Emax [1]: 80%
- Ki [3]: 5 nM
- EC50 [4]: 15 nM and 16 nM
- Intrinsic Activity* (B-lactamase) [4]: 95%
- Emax [4]: 97%
